Laboratory results as given in US20080145903A1, “PROCESSES OF PRODUCING FERMENTATION PRODUCTS” (priority 2006, published 2008).

Legend:
[1] = test system: yeast; test: One-step fermentation of ground corn slurry with T. cingulata GA + R. pusillus AA blend, ethanol by HPLC; assay type: cell-based; conditions: for Ethanol yield: one-step fermentation
Experimental: All treatments were evaluated via mini-scale fermentations. 410 g of ground yellow dent corn (with an average particle size around 0.5 mm) was added to 590 g tap water. This mixture was supplemented with 3.0 mL 1 g/L penicillin and 1 g of urea. The pH of this slurry was adjusted to 4.5 with 40% H2SO4. Dry solid (DS) level was determined to be 35 wt. %. Approximately 5 g of this slurry was added to 20 mL vials. Each vial was dosed with the appropriate amount of enzyme dosage shown in Table 2 below followed by addition of 200 microL yeast propagate/5 g slurry. Actual enzyme dosages were based on the exact weight of corn slurry in each vial. Vials were incubated at 32° C. Nine replicate fermentations of each treatment were run. Three replicates were selected for 24 hours, 48 hours and 70 hours time point analysis. Vials were vortexed at 24, 48 and 70 hours and analyzed by HPLC. The HPLC preparation consisted of stopping the reaction by addition of 50 microL of 40% H2SO4, centrifuging, and filtering through a 0.45 micrometer filter. Samples were stored at 4 C until analysis. Agilent™ 1100 HPLC system coupled with RI detector was used to determine ethanol and oligosaccharides concentration. The separation column was aminex HPX-87H ion exclusion column (300 mm×7.8 mm) from BioRad™).
The experiment was carried out as described in Example 2, except that salicylic acid (SA) was replaced with acetyl salicylic acid (ASA). The treatment and enzyme dosing was described in table below.

[2] = test system: RED STAR yeast; test: Dose/response study of salicylic acid in conventional SSF; assay type: cell-based
Experimental: The experiment was carried out as described in Example 1, except that the following enzyme blends was used for all treatments: • 0.3 AGU Talaromyces emersonii glucoamylase/g DS; • 0.0025 mg Rhizomucor pusillus alpha-amylase/g DS; and • 0.0125 mg Trametes cingulata glucoamylase/g DS. All treatments and controls included 8 replicates. [table]

[3] = test system: RED STAR yeast; test: Conventional simultaneous saccharification fermentation (SSF) of liquefied corn mash, ethanol yield by weight loss and HPLC; assay type: cell-based; conditions: weight loss method, all the enzymes tested, FIGS. 1, 2 and 3
Experimental: Liquefied corn mash was used to evaluate the effect of adding salicylic acid (SA) to a known enzyme dosage of
The performance of these enzymes was compared to controls without salicylic acid addition. The experimental set-up used is described in table below.
5.5 g of RED STAR™ yeast was rehydrated in 100 mL distilled water and incubated at 32° C. for 30 minutes prior to the beginning of fermentation. Approximately 50 million cells/g DS of yeast were added to each of the fermentations.
The corn mash was thawed to room temperature. Urea and Penicillin were added to a final concentration of […] and 3 mg/L respectively. Small-scale (˜4 g) fermentations were carried out in 15 mL polypropylene tubes with five replicates for each experimental condition. The tubes were prepared by drilling a 1/32 inch (1.5 mm) hole and the empty tubes were then weighed before liquefied corn mash was added. The tubes were weighed again after mash was added to determine the exact weight of mash in each tube. This weight was used to calculate the enzyme dosage necessary as follows:
Enzyme was added according to dosage described in table above and 100 μl of rehydrated yeast were added to each tube to begin fermentation. Fermentation progress was followed by weighing the tubes over time for approximately 70 hours. Tubes were vortexed briefly before each weighing. […]

[4] = test system: yeast; test: Yield boosting effect of salicylic acid on ethanol production from starch-containing material (conventional SSF), summary findings; assay type: cell-based
Description: Further, the effect on yeast growth is 2-fold.

[5] = test system: Pichia stipitis (CBS6054); conditions: salicylic acid 5 mM, 30° C., pH 6, FIG. 9

CC(=O)Oc1ccccc1C(=O)O [ASA, acetyl salicylic acid, reference compound]
Ethanol yield ([1]; ASA 1 mM (mM/g DS), 24 hours): 108.19
Ethanol yield ([1]; ASA 1 mM (mM/g DS), 48 hours): 153.37
Ethanol yield ([1]; ASA 1 mM (mM/g DS), 70 hours): 160.39
Fermentation kinetic and final ethanol yield ([1]; ASA 1.0 mM/g DS, FIG. 5): gave an increase in fermentation kinetic and also final ethanol yield

O=C(O)c1ccccc1O [SA, salicylic acid]
Glycerol after 70 hours of fermentation ([2]; HPLC, as a function of SA dose, FIG. 8): consistently reduced the amount of the by-product glycerol
Fermentation kinetics and final ethanol yield ([2]; weight loss data, FIG. 6): increased the fermentation kinetics and final ethanol yield
Ethanol yield ([1]; SA 1 mM (mM/g DS), 24 hours): 107.77
Ethanol yield ([1]; SA 1 mM (mM/g DS), 48 hours): 144.61
Ethanol yield ([1]; SA 1 mM (mM/g DS), 70 hours): 151.80
Ethanol yield ([1]; SA 2.5 mM (mM/g DS), 24 hours): 107.53
Ethanol yield ([1]; SA 2.5 mM (mM/g DS), 48 hours): 143.11
Ethanol yield ([1]; SA 2.5 mM (mM/g DS), 70 hours): 150.80
Ethanol yield ([1]; SA 5 mM (mM/g DS), 24 hours): 104.46
Ethanol yield ([1]; SA 5 mM (mM/g DS), 48 hours): 137.21
Ethanol yield ([1]; SA 5 mM (mM/g DS), 70 hours): 146.07
Ethanol yield ([1]; SA 15 mM (mM/g DS), 24 hours): 75.03
Ethanol yield ([1]; SA 15 mM (mM/g DS), 48 hours): 117.40
Ethanol yield ([1]; SA 15 mM (mM/g DS), 70 hours): 126.40
Fermentation speed and final ethanol yield ([1]; Trametes cingulata GA and Rhizomucor pusillus AA blend, FIG. 4): increases the fermentation speed and final ethanol yield
Fermentation kinetic and final ethanol yield [3]: increases the fermentation kinetic and also final ethanol yield
Residual glucose ([4]; at high salicylic acid concentrations): increased
Effect on yeast growth ([4]; at higher concentrations): reduce yeast growth
Effect on cell growth ([4]; at lower concentration): positive effect on cell growth
Effective concentration range ([4]; by HPLC): 1.25 to 2.5 mM
Maximum ethanol increase ([4]; by HPLC): 1.3%
Effective concentration range ([4]; by weight loss determination): 0.63 to 2.5 mM
Maximum ethanol increase ([4]; by weight loss determination): 3.5%
Glycerol production ([4]; with increasing salicylic acid concentration): decreased dramatically
Ability of P. stipitis to tolerate the inhibitors in the unwashed biomass hydrolyzate [5]: improves the ability of P. stipitis to tolerate the inhibitors
